Numbering of substitutions follows the chain as printed. pIC50, pKd: −log10 of the molar value.
What was measured:
[1] = target: T1, mutant MGL (mut-MGLL 11-313 L179S L186S) (Homo sapiens, UniProt Q99685, L169S/L176S); assay: MGL Enzyme Activity Assay, purified mutant MGL, 4MU-B substrate; assay type: biochemical; details: mutant MGL 5 nM, 4MU-B 10 μM, 37° C.; read-out: MGL mutant inh IC50
T1 construct: purified mutant MGL (mut-MGLL 11-313 L179S L186S)
T1 sequence (Q99685 1-303 L169S/L176S): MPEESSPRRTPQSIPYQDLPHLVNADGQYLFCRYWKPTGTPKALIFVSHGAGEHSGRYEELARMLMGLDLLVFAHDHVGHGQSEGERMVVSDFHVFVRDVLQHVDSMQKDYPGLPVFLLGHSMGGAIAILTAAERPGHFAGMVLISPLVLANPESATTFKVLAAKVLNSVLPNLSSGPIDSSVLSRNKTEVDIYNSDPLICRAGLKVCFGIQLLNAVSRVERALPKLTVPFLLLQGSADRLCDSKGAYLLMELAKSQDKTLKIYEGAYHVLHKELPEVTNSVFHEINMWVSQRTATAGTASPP
Method in brief: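 Purified mutant MGL (5 nM final) with 10 μM 4MU-B in 20 mM PIPES pH 7.0, 150 mM NaCl, 0.001% Tween 20; compounds 17 to 0.0003 μM final. Fluorescence (ex 335/em 440 nm) followed 5 min at 37 °C; IC50 from fit of fractional activity versus inhibitor concentration.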

[2] = target: T2, wild type MGL (wt-MGLL 6H-11-313) (Homo sapiens, UniProt Q99685); assay: MGL Enzyme Activity Assay, purified wild type MGL, 4MU-B substrate; assay type: biochemical; details: wild type MGL 5 nM, 4MU-B 10 μM, 37° C.; read-out: MGL wild type inh IC50
T2 construct: purified wild type MGL (wt-MGLL 6H-11-313); 6H (hexahistidine) (N)
T2 sequence (Q99685 1-303): T1 sequence (Q99685 1-303 L169S/L176S) with S169L, S176L
Description: All rate-based assays were performed in black 384-well polypropylene PCR microplates (Abgene) in a total volume of 30 μL. […] Final compound concentrations ranged from 17 to 0.0003 μM.
The IC50 values for the following compounds were determined using Microsoft Office Excel from a fit of the equation to the concentration-response plot of the fractional activity as a function of inhibitor concentration.

MGL = target: T3, MGL (Rattus norvegicus, UniProt Q8R431); assay: 2-AG Accumulation Assay in rat brain homogenate; assay type: biochemical; details: percent of vehicle; for activity at 1 µM: compound @1 µM, read-out: Rat Brain 2AG % VehCntrl (%) @1 µM; for activity at 10 µM: compound @10 µM, read-out: Rat Brain 2AG % VehCntrl (%) @10 µM
T3 construct: one g rat brain was homogenized using a Polytron homogenizer; from tissue; host or cells: rat brain homogenate
T3 sequence (Q8R431 1-303): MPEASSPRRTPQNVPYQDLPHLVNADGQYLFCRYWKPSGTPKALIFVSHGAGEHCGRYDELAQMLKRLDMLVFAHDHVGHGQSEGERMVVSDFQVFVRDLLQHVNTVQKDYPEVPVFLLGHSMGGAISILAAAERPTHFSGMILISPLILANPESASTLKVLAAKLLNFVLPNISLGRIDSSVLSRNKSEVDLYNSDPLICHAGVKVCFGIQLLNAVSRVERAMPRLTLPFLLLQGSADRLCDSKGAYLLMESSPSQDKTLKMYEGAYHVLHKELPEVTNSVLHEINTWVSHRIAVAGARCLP

mutant MGL = target: T4, mutant MGL (Homo sapiens, UniProt Q99685, L169S/L176S); assay: MGL ThermoFluor Assay - Mutant; assay type: binding; details: 0.07 mg/ml mutant MGL, 100 μM ANS, pH 7.0
T4 construct: purified mutant MGL (mut-MGLL 11-313 L179S L186S)
T4 sequence (Q99685 1-303 L169S/L176S): T1 sequence (Q99685 1-303 L169S/L176S)
Method in brief: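 Thermal-shift binding with 0.07 mg/ml L169S/L176S mutant MGL, 100 μM 1,8-ANS, 200 mM NaCl, 0.001% Tween-20, 50 mM PIPES pH 7.0, heated 40–90 °C at 1 °C/min.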

[3] = tested on: CFA-Induced Paw Radiant Heat Hypersensitivity; assay: CFA-Induced Paw Radiant Heat Hypersensitivity; assay type: in vivo; details: rat, HPβCD; for inhibition in vivo at 10 mg/kg / inhibition in vivo at 30 mg/kg: po, 5 h, group mean values, read-out: Method 1: peak % reversal; for Method 2: peak % reversal: individual animal values
Description: Each rat was placed in a test chamber on a warm glass surface and allowed to acclimate for approximately 10 min. A radiant thermal stimulus (beam of light) was focused through the glass onto the plantar surface of each hind paw in turn. The thermal stimulus was automatically shut off by a photoelectric relay when the paw was moved or when the cut-off time was reached (20 sec for radiant heat at ˜5 amps). An initial (baseline) response latency to the thermal stimulus was recorded for each animal prior to the injection of complete Freund's adjuvant (CFA). Twenty-four hours following intraplantar CFA injection, the response latency of the animal to the thermal stimulus was re-evaluated and compared to the animal's baseline response time. […] Immediately following the post-CFA latency assessment, the indicated test compound or vehicle was administered orally. Post-compound treatment withdrawal latencies were assessed at fixed time intervals, typically 30, 60, 120, 180, and 300 min.
The percent reversal (% R) of hypersensitivity was calculated in one of two different ways:
1) using group mean values or 2) using individual animal values. More specifically:
Method 1. For all compounds, the % R of hypersensitivity was calculated using the mean value for groups of animals at each time point according to the following formula: % reversal=[(group treatment response−group CFA response)/(group baseline response−group CFA response)]×100 Results were given for the maximum % reversal observed for each compound at any time point tested.
Method 2. For some compounds, the % R of hypersensitivity was calculated separately for each animal according to the following formula: % reversal=[(individual treatment response−individual CFA response)/(individual baseline response−individual CFA response)]×100.
Results are given as a mean of the maximum % reversal values calculated for each individual animal.

[4] = 10 mg/kg p.o., last time point 300 min
[5] = 30 mg/kg p.o., last time point 300 min (180 min for Cpd 17, 77)

Row | pIC50 [1] | pIC50 [2] | activity at 1 µM (MGL) [%] | activity at 10 µM (MGL) [%] | pKd (mutant MGL) | Compound | inhibition in vivo at 10 mg/kg [3, 4] [%] | inhibition in vivo at 30 mg/kg [3, 5] [%] | Method 2: peak % reversal [3, 4] [%] | Method 2: peak % reversal [3, 5] [%]
1 | 8.30 | > 8.30 | 370 | 639 | 8.22 | O=C(NC1CN(C2CN(C(=O)c3ccc4c(ccn4-c4ccc(C(F)(F)F)cc4)c3)C2)C1)c1nccs1 [Cpd 1, N-[1′-({1-[4-(Trifluoromethyl)phenyl]-1H-indol-5-yl}carbonyl)-1,3′-biazetidin-3-yl]-1,3-thiazole-2-carboxamide] | -18.6 | 10.3 | −19.0 | 7.4
2 | 8.22 | 8.10 | 620 | – | 7.66 | O=C(NC1CN(C2CN(C(=O)c3ccc(-c4cccc(C(F)(F)F)c4)cc3)C2)C1)c1cscn1 [Cpd 2, N-(1′-{[3′-(Trifluoromethyl)biphenyl-4-yl]carbonyl}-1,3′-biazetidin-3-yl)-1,3-thiazole-4-carboxamide] | – | 47.9 | – | –
3 | 8.15 | 7.82 | 347 | 921 | 7.95 | O=C(NC1CN(C2CN(C(=O)c3ccc(-c4cccc(C(F)(F)F)c4)cc3)C2)C1)c1nccs1 [Cpd 5, N-(1′-{[3′-(Trifluoromethyl)biphenyl-4-yl]carbonyl}-1,3′-biazetidin-3-yl)-1,3-thiazole-2-carboxamide] | – | 57.4 | – | 55.8
4 | 7.32 | 7.43 | 355 | 486 | 6.48 | O=C(NC1CN(C2CN(C(=O)c3ccc4nc(-c5ccccc5)oc4c3)C2)C1)c1nccs1 [Cpd 17, N-{1′-[(2-Phenyl-1,3-benzoxazol-6-yl)carbonyl]-1,3′-biazetidin-3-yl}-1,3-thiazole-2-carboxamide] | – | 27 | – | 31.5
5 | – | 8.22 | 413 | – | 8.67 | Cc1c(C(=O)N2CC(N3CC(NC(=O)c4nccs4)C3)C2)sc2cc(C(F)(F)F)ccc12 [Cpd 56, N-(1′-{[3-Methyl-6-(trifluoromethyl)-1-benzothiophen-2-yl]carbonyl}-1,3′-biazetidin-3-yl)-1,3-thiazole-2-carboxamide] | – | -1.3 | – | –
6 | – | > 8.30 | 434 | – | 7.97 | Cc1c(C(=O)N2CC(N3CC(NC(=O)c4cscn4)C3)C2)sc2cc(C(F)(F)F)ccc12 [Cpd 67, N-(1′-{[3-Methyl-6-(trifluoromethyl)-1-benzothiophen-2-yl]carbonyl}-1,3′-biazetidin-3-yl)-1,3-thiazole-4-carboxamide] | – | 35.7 | – | –
7 | 8.10 | > 8.30 | 483 | 736 | 8.46 | O=C(c1ccc2c(ccn2-c2ccc(C(F)(F)F)cc2)c1)N1CC(N2CC(N3Cc4ccccc4C3=O)C2)C1 [Cpd 70, 2-[1′-({1-[4-(Trifluoromethyl)phenyl]-1H-indol-5-yl}carbonyl)-1,3′-biazetidin-3-yl]-2,3-dihydro-1H-isoindol-1-one] | 28.2 | 4.7 | 22.5 | 5
8 | – | 8.22 | 534 | – | 8.40 | Cc1c(C(=O)N2CC(N3CC(N4Cc5ccccc5C4=O)C3)C2)sc2cc(C(F)(F)F)ccc12 [Cpd 101, 2-(1′-{[3-Methyl-6-(trifluoromethyl)-1-benzothiophen-2-yl]carbonyl}-1,3′-biazetidin-3-yl)-2,3-dihydro-1H-isoindol-1-one] | – | 6.1 | – | –

Reference: US8759333B2, “Di-azetidinyl diamide as monoacylglycerol lipase inhibitors” (Janssen Pharmaceutica, NV, priority 2010, dated 2014)
